The values that follow come from article PMC13372822 (The EMBO Journal, 2026).

SMILES strings stand for the structures. Numbering of substitutions follows the chain as printed.

The target of assay [1] is T1, SUCR1 mutants (variant named in the endpoint) (Homo sapiens, UniProt Q9BXA5, F285A).
T1 construct: The full-length human SUCR1 and mutations were fused after the HA signal peptide and Flag tag; HA signal peptide (N); Flag (N); expressed in transfected cells; host or cells: HEK293 stably expressing Gα16 (pcDNA6.0, transient electroporation)
T1 sequence (Q9BXA5 1-334 F285A): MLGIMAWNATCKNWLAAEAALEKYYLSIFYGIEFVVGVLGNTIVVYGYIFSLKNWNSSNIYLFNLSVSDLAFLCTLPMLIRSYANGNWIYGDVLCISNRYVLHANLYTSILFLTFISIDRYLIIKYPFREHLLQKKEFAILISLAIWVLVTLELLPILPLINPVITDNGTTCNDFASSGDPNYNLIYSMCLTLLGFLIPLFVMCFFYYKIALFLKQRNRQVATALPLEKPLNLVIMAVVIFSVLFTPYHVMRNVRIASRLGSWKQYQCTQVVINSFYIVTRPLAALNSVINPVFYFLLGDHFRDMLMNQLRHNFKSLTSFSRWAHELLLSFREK
Briefly: Calcium mobilization assay, SUCR1 mutants in HEK293 stably expressing Gα16.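 On Emax: percent of the maximal response to succinate.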 The assay is classed as cell-based. For orientation: A change in cytosolic calcium serves as a functional read-out for many receptors and channels.
Description: (§1) The full-length human SUCR1 and mutations were fused after the HA signal peptide and Flag tag. The constructs were cloned into pcDNA6.0 vector for HEK293 system.
(§2) HEK293 cells were obtained from ATCC (Manassas, VA, USA) and cultured in DMEM supplemented with 10% (v/v) FBS, 100 mg/L penicillin, and 100 mg/L streptomycin in 5% CO2 at 37 °C. For transient transfection, ~2.5 × 10^6 cells were mixed with 2 µg plasmids in 200 µL transfection buffer, and electroporation was carried out with a Scientz-2C electroporation apparatus (Scientz Biotech, Ningbo, China). The experiments were carried out 24 h after transfection. HEK293 cell lines stably expressing Gα16 were constructed by our laboratory.
(§3) For OXGR1, plasmids were transfected into HEK293 (other receptors were transfected into HEK293 stably expressing Gα16) and seeded at a density of 4 × 10^4 per well into 96-well culture plates and incubated for 24 h at 37 °C in 5% CO2. The next day, Cells were incubated with 2 μM/L Fluo-4 AM in HBSS supplemented with 5.6 mM/L D-glucose and 250 μM/L sulfinpyrazone at 37 °C for 45 min. […] Three independent measurements were repeated, i.e., three different transfections, with three technical replicates performed for each experiment. EC50 and Emax values for each curve were calculated by Prism 8.0 software (GraphPad Software).

Assay [2] concerns the target T2, SUCR1 mutants (variant named in the endpoint) (Homo sapiens, UniProt Q9BXA5, F285A/F72Y/Y248F).
T2 construct: The full-length human SUCR1 and mutations were fused after the HA signal peptide and Flag tag; HA signal peptide (N); Flag (N); expressed in transfected cells; host or cells: HEK293 stably expressing Gα16 (pcDNA6.0, transient electroporation)
T2 sequence (Q9BXA5 1-334 F72Y/Y248F/F285A): T1 sequence (Q9BXA5 1-334 F285A) with F72Y, Y248F
The description is as above. The format is cell-based.
Description: as §1, §2, §3

The target of assay [3] is T3, SUCR1 mutants (variant named in the endpoint) (Homo sapiens, UniProt Q9BXA5, F175L/I157M).
T3 construct: The full-length human SUCR1 and mutations were fused after the HA signal peptide and Flag tag; HA signal peptide (N); Flag (N); expressed in transfected cells; host or cells: HEK293 stably expressing Gα16 (pcDNA6.0, transient electroporation)
T3 sequence (Q9BXA5 1-334 I157M/F175L): T1 sequence (Q9BXA5 1-334 F285A) with I157M, F175L, A285F
The description is as above. The format is cell-based.
Description: as §1, §2, §3

The target in assay [4] is T4, SUCR1 mutants (variant named in the endpoint) (Homo sapiens, UniProt Q9BXA5, F285A/F72Y/L102F).
T4 construct: The full-length human SUCR1 and mutations were fused after the HA signal peptide and Flag tag; HA signal peptide (N); Flag (N); expressed in transfected cells; host or cells: HEK293 stably expressing Gα16 (pcDNA6.0, transient electroporation)
T4 sequence (Q9BXA5 1-334 F72Y/L102F/F285A): T1 sequence (Q9BXA5 1-334 F285A) with F72Y, L102F
Described as above. The format is cell-based.
Description: as §1, §2, §3

Assay [5] deals with T5, SUCR1 mutants (variant named in the endpoint) (Homo sapiens, UniProt Q9BXA5, F72Y).
T5 construct: The full-length human SUCR1 and mutations were fused after the HA signal peptide and Flag tag; HA signal peptide (N); Flag (N); expressed in transfected cells; host or cells: HEK293 stably expressing Gα16 (pcDNA6.0, transient electroporation)
T5 sequence (Q9BXA5 1-334 F72Y): T1 sequence (Q9BXA5 1-334 F285A) with F72Y, A285F
The description is as above. The format is cell-based.
Description: as §1, §2, §3

The target in assay [6] is T6, SUCR1 mutants (variant named in the endpoint) (Homo sapiens, UniProt Q9BXA5, F175L).
T6 construct: The full-length human SUCR1 and mutations were fused after the HA signal peptide and Flag tag; HA signal peptide (N); Flag (N); expressed in transfected cells; host or cells: HEK293 stably expressing Gα16 (pcDNA6.0, transient electroporation)
T6 sequence (Q9BXA5 1-334 F175L): T1 sequence (Q9BXA5 1-334 F285A) with F175L, A285F
The assay is described as above. The assay is classed as cell-based. As to conditions: for EC50: SUCR1 F175L.
Description: as §1, §2, §3

In assay [7] the test system is mock-transfected HEK293 cells. The assay can be described thus: Calcium assay in mock-transfected (empty vector) HEK293 cells. The format is cell-based. An excerpt: Figure. R3 | Activity of the compounds on OXGR1 using calcium assays.
Concentration-response curves of the four agonists in activating OXGR1 through the calcium assays. HEK293 cells were transfected with OXGR1 or empty vector by electroporation.
Cells were then loaded with Fluo-4 AM and intracellular calcium changes after stimulation with different compounds were monitored. Responses were normalized to 100% for the maximal response of each compound on OXGR1. Data are mean ± S.E.M. from three independent experiments (n = 3), with three technical replicates performed for each […]
(1 picture or pasted object on this page, not shown here)

In another assay the target is OXGR1 (Homo sapiens, UniProt Q96P68). Briefly: Calcium mobilization assay (Fluo-4 AM), wild-type OXGR1 in HEK293. As to conditions: for signal at concentrations exceeding the reported range: bell-shaped response curve; for activity in OXGR1-transfected HEK293 cells: in words.
The mark [8] stands for this setting: HEK293, OXGR1 WT, each ligand normalized to WT (100%).
[9] abbreviates: HEK293, OXGR1 WT, normalized to the maximal response elicited by AKG (100%).

Description for OXGR1: as §1, §2, §3

On to `O=C(O)CCC(=O)C(=O)O` [AKG, α-ketoglutarate], for which the Emax (as a rule, the size of the effect at its maximum, as opposed to the concentration needed) was 1.7 ± 3% in assay [1] (HEK293); 19 ± 2% in assay [2] (HEK293); -6.6 ± 3% in assay [3] (HEK293); 5 ± 1% in assay [4] (HEK293); 4.1 ± 2% in assay [5] (HEK293); 3.5 ± 1% in assay [6] (HEK293). The Emax on OXGR1 (HEK293) is 100 ± 11%. For the same compound, in assay [7], the “activity in mock-transfected cells” value is “no activity”. Besides, the “signal at concentrations exceeding the reported range” value at OXGR1 is “decrease in signal”. Further, at OXGR1, the “activity in OXGR1-transfected HEK293 cells” value is recorded as “robust activity”.

On to `C=C(CC(=O)O)C(=O)O` [ITA, itaconate], for which the Emax in assay [1] (HEK293, SUCR1 F285A, Emax relative to the SUC) was 6.3 ± 3%; in assay [2] (HEK293, SUCR1 F72Y-F285A-Y248F, Emax relative to the SUC), 2.2 ± 2%; in assay [3] (HEK293, SUCR1 F175L-I157M, Emax relative to the SUC), -3.1 ± 4%; in assay [4] (HEK293, SUCR1 F72Y-L102F-F285A, Emax relative to the SUC) it was 43 ± 5%; in assay [5] (HEK293, SUCR1 F72Y, Emax relative to the SUC), 3 ± 3%; on OXGR1 (setting [8]) it was 100 ± 10%. Further, at OXGR1 (setting [9]), the Emax was found to be 117 ± 4%. Also, the EC50 – broadly, the midpoint of the concentration-response curve – amounted to 340 ± 300 µM in assay [6] and 83 µM at OXGR1 (EC50, OXGR1 WT, Gq-mediated calcium signaling (Fig. 1D, Appendix Table S1)). The “ITA responsiveness of SUCR1-F175L” value in assay [6] (in words) is reported as “partial ITA responsiveness”. In addition, the “activity in mock-transfected cells” value in assay [7] is “no activity”. Besides, at OXGR1, the “signal at concentrations exceeding the reported range” value was “decrease in signal”. Also, the “activity in OXGR1-transfected HEK293 cells” value at OXGR1 is recorded as “robust activity”.

For `O=C(O)CCC(=O)O` [SUC, succinate], the half-maximal effective concentration (EC50) in assay [1] (SUCR1 F285A) was 3600 ± 800 µM; in assay [2] (SUCR1 F72Y-F285A-Y248F) it was 2700 ± 780 µM; in assay [3] (SUCR1 F175L-I157M), 150 ± 9 µM; in assay [4] (SUCR1 F72Y-L102F-F285A), 3900 ± 1300 µM; in assay [5] (SUCR1 F72Y), 1800 ± 300 µM; in assay [6], 18 ± 3 µM. Moreover, in assay [7], the “activity in mock-transfected cells” value is recorded as “no activity”. Moreover, the Emax on OXGR1 (setting [8]) stood at 100 ± 4%; on OXGR1 (setting [9]) it was 154 ± 4%. Further, the “activity in OXGR1-transfected HEK293 cells” value at OXGR1 is on record as “robust activity”.
